SMILES strings stand for the structures.

This experiment deals with 468 kinases including some pathogenic mutants (Mycobacterium tuberculosis, UniProt P9WI81). Briefly: biochemical. The class given is binding.

With `CN1C(=O)[C@@H](N2CCc3c(nn(Cc4ccccc4)c3C(N)=O)C2=O)COc2cc(Cl)ccc21` [Compound 10, (S)-2-benzyl-6-(8-chloro-5-methyl-4-oxo-2,3,4,5-tetrahydrobenzo[b][1,4]oxazepin-3-yl)-7-oxo-4,5,6,7-tetrahydro-2H-pyrazolo[3,4-c]pyridine-3-carboxamide], the “Percent Control” value stood at 100%.

The record behind these values is publication PMC12090182, “Repurposing of the RIPK1-Selective Benzo[1,4]oxazepin-4-one Scaffold for the Development of a Type III LIMK1/2 Inhibitor” (ACS Chemical Biology, 2025).
